Values quoted from earlier work as cited in US20230210793A1 (priority 2021, published 2023).

O=NN(CCCl)C(=O)NCCCl [Carmustine, 1,3-bis(2-chloroethyl)-1-nitrosourea]
solubility in water: poorly soluble
